Measured values from patent publication US20220167645A1, “METHODS OF IMPROVING FISH FEED CONVERSION RATE AND SURVIVAL” (AQUINOVO LTD., priority 2019, published 2022).
Numbered stars: 1 amine (or outer) side, 2 acyl side, 3 side chain; on linkers, the order of the positions; unused ones are H or OH. Square brackets hold non-standard residues; d marks the D form. Suc = O=C(CCC(=O)[*:2])[*:1]; NMeV = CN[C@H](C(=O)O)C(C)C; βAla = NCCC(=O)O

Tested on: Tilapia fish
Assay: Experiment #3: tilapia fed AN6-coated feed, treatment schedules 1 to 8 (survival, weight, length, size distribution, FCR)
Format: in vivo
Conditions: for increase in average fish weight: D279, compared to control; for % big fish (Big fish 279 dph >1000 g) / % small fish (Small fish 279 dph >476 g) / Δ Treatment - Control (%) big fish (>1000 g) / Δ Treatment - Control (%) small fish (>476 g) / Big fish # (Big fish 279 dph >1000 g) / Small fish # (Small fish 279 dph): 279 dph; for Average FCR/cage / Average density (body/cage) / Average weight gain/fish (g) / Average weight/fish (g) / Total weight/cage (g): D 236 to D 279, % change relative to control
Protocol: The following fish feed was used in this experiment: MeM (powder, manufactured by Bern Aqua), Nanolis P1, P2 (pellet sizes of 1 mm, 1.2-1.5 mm, respectively, manufactured by Ocialis) and Tilaphi 2, 3 & 4 (pellet sizes of 2 mm, 3-4 mm & 5.5 mm manufactured by Ocialis). The feed content is in described in Table 4.
Feed was coated using the following general procedure: Different amounts of the peptide AN6 (SEQ ID NO: 6) were prepared by dissolving the peptide in Tris-HCl solution (50 mM, pH=8.8) in ratio of 15 mg peptide to 1.25 ml Tris-HCl solution. Then, each of the various solutions was mixed with 3 Kg of the basic feed pellets (depending on fish size) using an electric mixer. The peptide-feed mixtures where then dried either in oven at 40° C. for 24 hours or in drying drum (at room temperature) for few hours to form coated pellets.
Tilapia fish (n=4800) were raised from day 10 (0.05 g) post-hatch (dph) in indoor tanks and then transferred to outdoor cages in ponds (40-279 dph). Each cage/tank is an experimental unit. The fish were fed to apparent satiation 2-4 times a day with feed appropriate to their age and treatment as described in Table 5.
The trial included total 48 cages representing 8 treatments, with 6 repeats each. Each cage contained about 100 fish. […] Fed to fish throughout the entire growth-trial period (for 279 days); • Treatment 2 (5 ppm from 10 dph for 120 days): The control diet with the addition of 5 mg peptide/kg of diet (Feed F). Fish were fed the peptide enriched diet for 120 days (4 months), from 10 days of age (D0—the first day of the experiment) to 130 days of age (D120), and the control diet during the last 6 months (159 days) (Feed E); • Treatment 3 (10 ppm from 10 dph for 60 days): The control diet with the addition of 10 mg peptide/kg of diet (Feed G). […] Fish were fed the peptide enriched diet for 90 days (3 months) from 10 days of age (D0) to 100 days of age (D90) and the control diet for the last 7 months (189 days) (Feed E); • Treatment 5 (10 ppm from 10 dph for 120 days): The control diet with the addition of 10 mg peptide/kg of diet (Feed G). Fish were fed the peptide enriched diet for 120 days (4 months) from 10 days of age (D0) to 130 days of age (D120) and the control diet for the last 6 months (159 days) (Feed E); • Treatment 6 (10 ppm from 100 dph for 30 days): The control diet with the addition of 10 mg peptide/kg of diet (Feed G). Fish were fed the peptide enriched diet for 30 days (1 month) from 100 days of age (D90) to 130 days of age (D120) and the control diet for the first three months (90 days from D0 to D90) and the last 6 months (159 days) (Feed E); • Treatment 7 (30 ppm from 10 dph for 60 days): The control diet with the addition of 30 mg peptide/kg of diet (Feed H). Fish were fed the peptide enriched diet for 60 days (2 months) from 10 days of age (D0) to 70 days of age (D60), and the control diet during the last 8 months (219 days) (Feed E); • Treatment 8 (30 ppm from 10 dph for 90 days): The control diet with the addition of 30 mg peptide/kg of diet (Feed H). Fish were fed the peptide enriched diet for 90 days (3 months) from 10 days of age (D0) to 100 days of age (D90) and the control diet for the last 7 months (189 days) (Feed E).
During the experimental period, fish weight and length were measured once a month. Individual fish sex was determined at days 96 and 279 of the experiment. Average fish weight per cage were calculated for each measurement period (FIG. 8). […] Between two weight measurements, average weight gain (FIG. 9A) and daily growth rates (FIG. 9B) were calculated by subtracting the average weight at the beginning and end of the measuring period and dividing by the number of days between.
In order to determine the efficiency of feed conversion into fish substance in experiments (#1, #2, #3), FCR values which reflect the amount of feed needed to grow a kilogram fish, were calculated for each period and for the entire fish growth period. […]

[1] = AN6 for 60 days, 10 mg/Kg feed (Treatment 3)
[2] = AN6 for 90 days, 30 mg/Kg feed (Treatment 8)
[3] = AN6 treated groups (Treatments 2, 3, or 8)
[4] = Treatment 2 (5 ppm from 10 dph for 120 days)
[5] = Treatment 2 (5 ppm from 10 dph for 120 days), of 451 fish
[6] = Treatment 2 (5 ppm from 10 dph for 120 days), female fish, D 96
[7] = Treatment 2 (5 ppm from 10 dph for 120 days), female fish, D 279
[8] = Treatment 2 (5 ppm from 10 dph for 120 days), male fish, D 96
[9] = Treatment 2 (5 ppm from 10 dph for 120 days), male fish, D 279
[10] = Treatment 3 (10 ppm from 10 dph for 60 days)
[11] = Treatment 3 (10 ppm from 10 dph for 60 days), of 480 fish
[12] = Treatment 3 (10 ppm from 10 dph for 60 days), female fish, D 96
[13] = Treatment 3 (10 ppm from 10 dph for 60 days), female fish, D 279
[14] = Treatment 3 (10 ppm from 10 dph for 60 days), male fish, D 96
[15] = Treatment 3 (10 ppm from 10 dph for 60 days), male fish, D 279
[16] = Treatment 4 (10 ppm from 10 dph for 90 days)
[17] = Treatment 4 (10 ppm from 10 dph for 90 days), of 463 fish
[18] = Treatment 4 (10 ppm from 10 dph for 90 days), female fish, D 96
[19] = Treatment 4 (10 ppm from 10 dph for 90 days), female fish, D 279
[20] = Treatment 4 (10 ppm from 10 dph for 90 days), male fish, D 96
[21] = Treatment 4 (10 ppm from 10 dph for 90 days), male fish, D 279
[22] = Treatment 5 (10 ppm from 10 dph for 120 days)
[23] = Treatment 5 (10 ppm from 10 dph for 120 days), of 441 fish

Substance: Succ-Asp-Ser- D-Trp -N(Me)Val-βAla-Leu-Met-NH2 (Suc-DS[dW][NMeV][βAla]LM-NH2; SMILES CSCC[C@H](NC(=O)[C@H](CC(C)C)NC(=O)CCNC(=O)[C@H](C(C)C)N(C)C(=O)[C@@H](Cc1c[nH]c2ccccc12)NC(=O)[C@H](CO)NC(=O)[C@H](CC(=O)O)NC(=O)CCC(=O)O)C(N)=O) [AN6]
- increase in average fish weight (5 mg AN6/Kg for 120 days (Treatment 2)): +7.11%
- increase in average fish weight (10 mg AN6/Kg feed from 10 dph for 120 days (Treatment 5)): +6.41%
- increased daily growth rate, on average compared to the control (5 ppm and 10 ppm AN6 for sufficient time (>90 days), throughout the experimental period): 5.8%
- FCR [1]: improved FCR significantly
- growth [1]: did not affect growth
- FCR [2]: improved FCR significantly
- growth [2]: did not affect growth
- proportion of large fish (>1000 g) [3]: higher proportion
- proportion of small fish (<476 g) [3]: lower proportion
- % big fish (Big fish 279 dph >1000 g) [4]: 16.6%
- % small fish (Small fish 279 dph >476 g) [4]: 4.7%
- Δ Treatment - Control (%) big fish (>1000 g) [4]: 6.4%
- Δ Treatment - Control (%) small fish (>476 g) [4]: −4.5%
- Big fish # (Big fish 279 dph >1000 g) [5]: 75
- Small fish # (Small fish 279 dph) [5]: 21
- Average FCR/cage [4]: −2.14%
- Average density (body/cage) [4]: 0.45%
- Average weight gain/fish (g) [4]: 6.18%
- Average weight/fish (g) [4]: 6.41%
- Total weight/cage (g) [4]: 6.71%
- Length/fish (cm) Mean [6]: 15.85 cm
- Weight/fish (g) Mean [6]: 87.35 g
- Δ Mean % (Treatment vs. control) Length/fish [6]: 0.38%
- Δ Mean % (Treatment vs. control) Weight/fish [6]: 6.24%
- Length/fish (cm) Mean [7]: 30.76 cm
- Weight/fish (g) Mean [7]: 651.83 g
- Δ Mean % (Treatment vs. control) Length/fish [7]: 2.09%
- Δ Mean % (Treatment vs. control) Weight/fish [7]: 8.30%
- Length/fish (cm) Mean [8]: 17.22 cm
- Weight/fish (g) Mean [8]: 111.8 g
- Δ Mean % (Treatment vs. control) Length/fish [8]: 0.00%
- Δ Mean % (Treatment vs. control) Weight/fish [8]: 5.97%
- Length/fish (cm) Mean [9]: 34.37 cm
- Weight/fish (g) Mean [9]: 916.05 g
- Δ Mean % (Treatment vs. control) Length/fish [9]: −0.03%
- Δ Mean % (Treatment vs. control) Weight/fish [9]: 5.86%
- % big fish (Big fish 279 dph >1000 g) [10]: 16.5%
- % small fish (Small fish 279 dph >476 g) [10]: 4.8%
- Δ Treatment - Control (%) big fish (>1000 g) [10]: 6.2%
- Δ Treatment - Control (%) small fish (>476 g) [10]: −4.3%
- Big fish # (Big fish 279 dph >1000 g) [11]: 79
- Small fish # (Small fish 279 dph) [11]: 23
- Average FCR/cage [10]: −4.28%
- Average density (body/cage) [10]: 6.91%
- Average weight gain/fish (g) [10]: 9.19%
- Average weight/fish (g) [10]: 3.44%
- Total weight/cage (g) [10]: 10.27%
- Length/fish (cm) Mean [12]: 16.03 cm
- Weight/fish (g) Mean [12]: 87.67 g
- Δ Mean % (Treatment vs. control) Length/fish [12]: 1.52%
- Δ Mean % (Treatment vs. control) Weight/fish [12]: 6.63%
- Length/fish (cm) Mean [13]: 30.5 cm
- Weight/fish (g) Mean [13]: 629.02 g
- Δ Mean % (Treatment vs. control) Length/fish [13]: 1.23%
- Δ Mean % (Treatment vs. control) Weight/fish [13]: 4.51%
- Length/fish (cm) Mean [14]: 17.19 cm
- Weight/fish (g) Mean [14]: 106.51 g
- Δ Mean % (Treatment vs. control) Length/fish [14]: −0.17%
- Δ Mean % (Treatment vs. control) Weight/fish [14]: 0.96%
- Length/fish (cm) Mean [15]: 34.14 cm
- Weight/fish (g) Mean [15]: 877.38 g
- Δ Mean % (Treatment vs. control) Length/fish [15]: −0.70%
- Δ Mean % (Treatment vs. control) Weight/fish [15]: 1.39%
- % big fish (Big fish 279 dph >1000 g) [16]: 14.7%
- % small fish (Small fish 279 dph >476 g) [16]: 4.8%
- Δ Treatment - Control (%) big fish (>1000 g) [16]: 4.4%
- Δ Treatment - Control (%) small fish (>476 g) [16]: −4.4%
- Big fish # (Big fish 279 dph >1000 g) [17]: 68
- Small fish # (Small fish 279 dph) [17]: 22
- Average FCR/cage [16]: −2.14%
- Average density (body/cage) [16]: 3.34%
- Average weight gain/fish (g) [16]: 1.69%
- Average weight/fish (g) [16]: 3.89%
- Total weight/cage (g) [16]: 7.37%
- Length/fish (cm) Mean [18]: 15.96 cm
- Weight/fish (g) Mean [18]: 86.4 g
- Δ Mean % (Treatment vs. control) Length/fish [18]: 1.08%
- Δ Mean % (Treatment vs. control) Weight/fish [18]: 5.08%
- Length/fish (cm) Mean [19]: 30.48 cm
- Weight/fish (g) Mean [19]: 631.17 g
- Δ Mean % (Treatment vs. control) Length/fish [19]: 1.16%
- Δ Mean % (Treatment vs. control) Weight/fish [19]: 4.86%
- Length/fish (cm) Mean [20]: 17.26 cm
- Weight/fish (g) Mean [20]: 111.87 g
- Δ Mean % (Treatment vs. control) Length/fish [20]: 0.23%
- Δ Mean % (Treatment vs. control) Weight/fish [20]: 6.04%
- Length/fish (cm) Mean [21]: 34.15 cm
- Weight/fish (g) Mean [21]: 881.92 g
- Δ Mean % (Treatment vs. control) Length/fish [21]: −0.67%
- Δ Mean % (Treatment vs. control) Weight/fish [21]: 1.92%
- % big fish (Big fish 279 dph >1000 g) [22]: 12.0%
- % small fish (Small fish 279 dph >476 g) [22]: 8.6%
- Δ Treatment - Control (%) big fish (>1000 g) [22]: 1.8%
- Δ Treatment - Control (%) small fish (>476 g) [22]: −0.5%
- Big fish # (Big fish 279 dph >1000 g) [23]: 53
- Small fish # (Small fish 279 dph) [23]: 38
- Average FCR/cage [22]: −0.53%
- Average density (body/cage) [22]: −1.78%
- Average weight gain/fish (g) [22]: 7.59%
